Laboratory results from patent US20070004660A1, “Synergistic Modulation of Flt3 Kinase Using Alkylquinolines and Alkylquinazolines” (priority 2005, published 2007).
pIC50: −log10 of the molar value.

These compounds were tested against T1, wild-type FLT3 receptor (Homo sapiens, UniProt P36888) (assay: Cell-based FLT3 receptor ELISA (FLT ligand-induced phosphorylation in Baf3 FLT3 cells)). Details: 100 ng/mL Flt ligand, uncertainty ±20%.
T1 construct: host or cells: Baf3 (murine B cell lymphoma line), stably transfected
T1 sequence (P36888 27-993): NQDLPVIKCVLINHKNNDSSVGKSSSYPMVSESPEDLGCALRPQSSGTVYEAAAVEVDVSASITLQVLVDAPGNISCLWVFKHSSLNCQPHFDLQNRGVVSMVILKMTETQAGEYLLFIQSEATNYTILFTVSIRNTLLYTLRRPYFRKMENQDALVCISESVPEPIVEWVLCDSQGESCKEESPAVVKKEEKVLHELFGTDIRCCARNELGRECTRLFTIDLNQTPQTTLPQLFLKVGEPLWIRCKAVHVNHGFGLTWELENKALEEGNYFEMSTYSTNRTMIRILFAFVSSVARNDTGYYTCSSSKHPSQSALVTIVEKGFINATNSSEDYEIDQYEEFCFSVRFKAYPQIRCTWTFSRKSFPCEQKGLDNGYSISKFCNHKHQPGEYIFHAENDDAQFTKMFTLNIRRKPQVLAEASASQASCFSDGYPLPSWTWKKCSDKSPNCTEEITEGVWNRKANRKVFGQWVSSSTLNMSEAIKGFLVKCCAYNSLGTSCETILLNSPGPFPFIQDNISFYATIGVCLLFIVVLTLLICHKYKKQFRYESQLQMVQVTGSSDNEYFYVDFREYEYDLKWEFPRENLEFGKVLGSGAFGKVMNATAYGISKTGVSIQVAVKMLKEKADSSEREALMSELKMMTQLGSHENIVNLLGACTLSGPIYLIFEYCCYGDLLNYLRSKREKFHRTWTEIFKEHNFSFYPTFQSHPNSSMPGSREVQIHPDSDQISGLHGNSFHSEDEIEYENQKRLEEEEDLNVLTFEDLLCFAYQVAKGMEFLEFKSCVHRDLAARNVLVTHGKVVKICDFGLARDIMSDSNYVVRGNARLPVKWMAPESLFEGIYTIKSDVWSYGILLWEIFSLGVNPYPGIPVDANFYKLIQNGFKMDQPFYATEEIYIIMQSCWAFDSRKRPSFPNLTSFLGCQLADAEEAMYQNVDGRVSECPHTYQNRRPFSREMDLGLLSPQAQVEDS
Description: Specific cellular inhibition of FLT ligand-induced wild-type FLT3 phosphorylation was measured in the following manner: Baf3 FLT3 cells overexpressing the FLT3 receptor were obtained from Dr. Michael Heinrich (Oregon Health and Sciences University). The Baf3 FLT3 cell lines were created by stable transfection of parental Baf3 cells (a murine B cell lymphoma line dependent on the cytokine IL-3 for growth) with wild-type FLT3. Cells were selected for their ability to grow in the absence of IL-3 and in the presence of FLT3 ligand. Baf3 cells were maintained in RPMI 1640 with 10% FBS, penn/strep and 10 ng/ml FLT ligand at 37° C., 5% CO2. To measure direct inhibition of the wild-type FLT3 receptor activity and phosphorylation a sandwich ELISA method was developed similar to those developed for other RTKs (see Sadick, M D, Sliwkowski, M X, Nuijens, A, Bald, L, Chiang, N, Lofgren, J A, Wong W L T. Analysis of Heregulin-Induced ErbB2 Phosphorylation with a High-Throughput Kinase Receptor Activation Enzyme-Linked Immunsorbent Assay, Analytical Biochemistry. 1996; 235:207-214 and Baumann C A, Zeng L, Donatelli R R, Maroney A C. Development of a quantitative, high-throughput cell-based enzyme-linked immunosorbent assay for detection of colony-stimulating factor-1 receptor tyrosine kinase inhibitors. J Biochem Biophys Methods. 2004; 60:69-79.). 200 μL of Baf3FLT3 cells (1×10^6 /mL) were plated in 96 well dishes in RPMI 1640 with 0.5% serum and 0.01 ng/mL IL-3 for 16 hours prior to 1 hour compound or DMSO vehicle incubation. Cells were treated with 100 ng/mL Flt ligand (R&D Systems Cat# 308-FK) for 10 min. at 37° C. Cells were pelleted, washed and lysed in 100 ul lysis buffer (50 mM Hepes, 150 mM NaCl, 10% Glycerol, 1% Triton-X-100, 10 mM NaF, 1 mM EDTA, 1.5 mM MgCl2, 10 mM NaPyrophosphate) supplemented with phosphatase (Sigma Cat# P2850) and protease inhibitors (Sigma Cat #P8340). Lysates were cleared by centrifugation at 1000×g for 5 minutes at 4° C. Cell lysates were transferred to white wall 96 well microtiter (Costar #9018) plates coated with 50 ng/well anti-FLT3 antibody (Santa Cruz Cat# sc-480) and blocked with SeaBlock reagent (Pierce Cat#37527). Lysates were incubated at 4° C. for 2 hours. Plates were washed 3× with 200 ul/well PBS/0.1% Triton-X-100. Plates were then incubated with 1:8000 dilution of HRP-conjugated anti-phosphotyrosine antibody (Clone 4G10, Upstate Biotechnology Cat#16-105) for 1 hour at room temperature. Plates were washed 3× with 200 ul/well PBS/0.1% Triton-X-100. Signal detection with Super Signal Pico reagent (Pierce Cat#37070) was done according to manufacturer's instruction with a Berthold microplate luminometer. All data points are an average of triplicate samples. […] Inhibition and IC50 data analysis was done with GraphPad Prism using a non-linear regression fit with a multiparamater, sigmoidal dose-response (variable slope) equation.

Row | Compound | pIC50
1 | CC(C)Oc1ccc(NC(=O)N2CCC(c3ncnc4cc(OCCCOS(C)(=O)=O)ccc34)CC2)cc1 [Example 121, Methanesulfonic acid 3-{4-[1-(4-isopropoxy-phenylcarbamoyl)-piperidin-4-yl]-quinazolin-7-yloxy}-propyl ester] | 6.93
2 | CC(C)Oc1ccc(NC(=O)N2CCC(c3ncnc4cc(NCCCN5CCN(C)CC5)ccc34)CC2)cc1 [Example 102, 4-{7-[3-(4-Methyl-piperazin-1-yl)-propylamino]-quinazolin-4-yl}-piperidine-1-carboxylic acid (4-isopropoxy-phenyl)-amide] | 8.30
3 | COc1cc2ncnc(C3CCN(C(=O)Nc4ccc(-c5ccco5)cc4)CC3)c2cc1OC [Example 59, 4-(6,7-Dimethoxy-quinazolin-4-yl)-piperidine-1-carboxylic acid (4-furan-2-yl-phenyl)-amide] | 7.57
4 | CN1CCN(CCCOc2ccc3c(C4CCN(C(=O)Nc5ccc(OC6CCCC6)nc5)CC4)ncnc3c2)CC1 [Example 82, 4-{7-[3-(4-Methyl-piperazin-1-yl)-propoxy]-quinazolin-4-yl}-piperidine-1-carboxylic acid (6-cyclopentyloxy-pyridin-3-yl)-amide] | 7.20
5 | CC(C)Oc1ccc(NC(=O)N2CCC(c3ncnc4cc(OCC5CCN(C)CC5)ccc34)CC2)cc1 [Example 93, 4-[7-(1-Methyl-piperidin-4-ylmethoxy)-quinazolin-4-yl]-piperidine-1-carboxylic acid (4-isopropoxy-phenyl)-amide] | 9.00
6 | CC(C)Oc1ccc(NC(=O)N2CCC(c3ccnc4ccccc34)CC2)cc1 [Example 6, 4-Quinolin-4-yl-piperidine-1-carboxylic acid (4-isopropoxy-phenyl)-amide] | 7.40
7 | O=C(Nc1ccc(N2CCCC2)nc1)N1CCC(c2ncnc3cc(OCCN4CCOCC4)ccc23)CC1 [Example 95, 4-[7-(2-Morpholin-4-yl-ethoxy)-quinazolin-4-yl]-piperidine-1-carboxylic acid (6-pyrrolidin-1-yl-pyridin-3-yl)-amide] | 7.60
8 | CS(=O)(=O)NCCCOc1ccc2c(C3CCN(C(=O)Nc4ccc(OC5CCCC5)nc4)CC3)ncnc2c1 [Example 88, 4-[7-(3-Methanesulfonylamino-propoxy)-quinazolin-4-yl]-piperidine-1-carboxylic acid (6-cyclopentyloxy-pyridin-3-yl)-amide] | 7.52
9 | CS(=O)(=O)NCCCOc1ccc2c(C3CCN(C(=O)Nc4ccc(N5CCOCC5)cc4)CC3)ncnc2c1 [Example 66, 4-[7-(3-Methanesulfonylamino-propoxy)-quinazolin-4-yl]-piperidine-1-carboxylic acid (4-morpholin-4-yl-phenyl)-amide] | 7.89
10 | CCN(CC)CC#Cc1ccc2ncnc(C3CCN(C(=O)Nc4ccc(OC(C)C)cc4)CC3)c2c1 [Example 13, 4-[6-(3-Diethylamino-prop-1-ynyl)-quinazolin-4-yl]-piperidine-1-carboxylic acid (4-isopropoxy-phenyl)-amide] | 7.57
11 | O=C(Nc1ccc(N2CCOCC2)cc1)N1CCC(c2ncnc3cc(OCCCN4CCN(CCO)CC4)ccc23)CC1 [Example 116, 4-(7-{3-[4-(2-Hydroxy-ethyl)-piperazin-1-yl]-propoxy}-quinazolin-4-yl)-piperidine-1-carboxylic acid (4-morpholin-4-yl-phenyl)-amide] | 7.60
12 | O=C(NCCCOc1ccc2c(C3CCN(C(=O)Nc4ccc(N5CCCC5)nc4)CC3)ncnc2c1)N1CCOCC1 [Example 112, Morpholine-4-carboxylic acid (3-{4-[1-(6-pyrrolidin-1-yl-pyridin-3-ylcarbamoyl)-piperidin-4-yl]-quinazolin-7-yloxy}-propyl)-amide] | 7.10
13 | CN1CCN(CCCOc2ccc3c(C4CCN(C(=O)Nc5ccc(N6CCOCC6)cc5)CC4)ncnc3c2)CC1 [Example 73, 4-{7-[3-(4-Methyl-piperazin-1-yl)-propoxy]-quinazolin-4-yl}-piperidine-1-carboxylic acid (4-morpholin-4-yl-phenyl)-amide] | 7.04
14 | CS(=O)(=O)NCCCOc1ccc2c(C3CCN(C(=O)Nc4ccc(N5CCOCC5)nc4)CC3)ncnc2c1 [Example 87, 4-[7-(3-Methanesulfonylamino-propoxy)-quinazolin-4-yl]-piperidine-1-carboxylic acid (6-morpholin-4-yl-pyridin-3-yl)-amide] | 7.64
15 | O=C1CCCN1CCOc1ccc2c(C3CCN(C(=O)Nc4cnc(N5CCCC5)nc4)CC3)ncnc2c1 [Example 84, 4-{7-[2-(2-Oxo-pyrrolidin-1-yl)-ethoxy]-quinazolin-4-yl}-piperidine-1-carboxylic acid (2-pyrrolidin-1-yl-pyrimidin-5-yl)-amide] | 7.10
16 | O=C1CCCN1CCCOc1ccc2c(C3CCN(C(=O)Nc4cnc(N5CCCC5)nc4)CC3)ncnc2c1 [Example 90, 4-{7-[3-(2-Oxo-pyrrolidin-1-yl)-propoxy]-quinazolin-4-yl}-piperidine-1-carboxylic acid (2-pyrrolidin-1-yl-pyrimidin-5-yl)-amide] | 6.55
17 | O=C(Nc1ccc(N2CCCC2)nc1)N1CCC(c2ncnc3cc(OCCN4CCOC4=O)ccc23)CC1 [Example 92, 4-{7-[2-(2-Oxo-oxazolidin-3-yl)-ethoxy]-quinazolin-4-yl}-piperidine-1-carboxylic acid (6-pyrrolidin-1-yl-pyridin-3-yl)-amide] | 7.92
18 | CS(=O)(=O)OCCCOc1ccc2c(C3CCN(C(=O)Nc4ccc(N5CCOCC5)cc4)CC3)ncnc2c1 [Example 122, Methanesulfonic acid 3-{4-[1-(4-morpholin-4-yl-phenylcarbamoyl)-piperidin-4-yl]-quinazolin-7-yloxy}-propyl ester] | 6.96
19 | COc1cc2ncnc(C3CCN(C(=O)Nc4ccc(C5=CCN(C(=O)OC(C)(C)C)CC5)cc4)CC3)c2cc1OC [Example 61, 4-(4-{[4-(6,7-Dimethoxy-quinazolin-4-yl)-piperidine-1-carbonyl]-amino}-phenyl)-3,6-dihydro-2H-pyridine-1-carboxylic acid tert-butyl ester] | 5.74
20 | O=C(Nc1ccc(N2CCOCC2)cc1)N1CCC(c2ncnc3cc(OCCCN4CCCCC4)ccc23)CC1 [Example 75] | 7.08
21 | CCN1CCN(CCCOc2ccc3c(C4CCN(C(=O)Nc5ccc(N6CCOCC6)cc5)CC4)ncnc3c2)CC1 [Example 115, 4-{7-[3-(4-Ethyl-piperazin-1-yl)-propoxy]-quinazolin-4-yl}-piperidine-1-carboxylic acid (4-morpholin-4-yl-phenyl)-amide] | 8.05
